Values after ≈ are worked out from the molar mass of the structure shown. Like-named read-outs stand apart in the source and are kept apart here. Bridge positions count the residues as written; N and C are the ends. Square brackets hold non-standard residues; d marks the D form. Peptide text beside a SMILES is read from it. d(aIle) = CC[C@H](C)[C@@H](N)C(=O)O; dNMeF = CN[C@H](Cc1ccccc1)C(=O)O
Columns and labels:
[1] = test system: C. difficile
[2] = test system: S. aureus (14 isolates); type: cell-based, Staphylococcus aureus; conditions: 20 h
Experimental: (§1) The broth microdilution susceptibility assay followed the procedure described by the Clinical and Laboratory Standards Institute (CLSI) in CLSI document M7-A10.
(§2) The following bacteria isolates were tested:
(§3) S.aureus, S.epidermidis, E.faecalis, and E.faecium colonies were grown on TSA (Tryptone Soya Agar; cat.N. P05012A -OXOID) S.pneumoniae and S.pyogenes colonies were grown on TSASB ((TSA) Agar +5% Sheep Blood; cat.N. PB5012A -OXOID). An inoculum was prepared by making a direct saline suspension of isolated colonies selected from an 18 to 24 hours agar plate incubated at 35±2 ° C. in ambient air. The suspension was adjusted to achieve a turbidity equivalent to a 0.5 McFarland turbidity standard (1 to 2 ×10^8 Colony Forming Units (CFU)) and diluted 200 fold within 15 minutes in broth. (S.aureus, S.epidermidis, E.faecalis, and E.faecium were diluted in CAMHB: Mueller Hinton Broth 2, Cation-Adjusted (cat. N. 90922 Fluka); S.pneumoniae and S.pyogenes were diluted in CAMHB +2.5% lysed horse blood. All broth contained 0.002% polysorbate 80.
(§4) 96-well plates were prepared containing 1 μL of the test compound (at 100× desired test concentration in 100% DMSO); compounds were tested at 8 final concentrations, i.e. 16 μg/mL, 8 μg/mL, 4 μg/mL, 2 μg/mL, 1 μg/mL, 0.5 μg/mL, 0.25 μg/mL, and 0.125 μg/mL. 100 μL of the broth dilution was dispensed in each well plate to have a final bacterial concentration in plate of ˜5×10^5 CFU/mL. The plates were incubated at 35±2° C. in ambient air for 20 hours.

[3] = test system: S. epidermidis (5 isolates); type: cell-based, Staphylococcus epidermidis; conditions: 20 h
Experimental: as §1, §2, §3, §4

[4] = test system: S.aureus; type: cell-based, Staphylococcus aureus
Experimental: (§5) This assay was used to determine the minimum concentration of a test compound (i.e., an antimicrobial peptide described herein) able to inhibit the growth of a bacterial strain of interest. This is a standard method for measuring and comparing the potency of peptide-based antibacterial agents (Steinberg et al., Antimicrobial Agents and Chemotherapy 1997, 41 (8) 1738 - 1742 and Wiegand et al., Nature Protocols 2008, 3, 163-175).
(§6) The MIC is reported in units of μg/mL.
(§7) Bacterial cultures were grown by inoculating Mueller-Hinton Broth (MHB) with 3 or 4 representative colony (typical size, color, and shape) from a bacterial strain grown on a LB agar plate. Inoculated liquid cultures were grown at 37° C. with moderate shaking (200-250 rpm) until bacteria produced a visibly turbid suspension. Bacterial inoculum was approximated by measuring the optical density at 600 nm (0D600) of the bacterial culture against a sterile MHB blank. Typically, OD600=0.10 corresponds to ˜1×10^8 cfu/mL for S.aureus and OD600 =0.15 corresponds to ˜1×10^8 cfu/mL for E.coli.
(§8) Test compounds were prepared as stock solutions in vehicle at a concentration 10 times the highest concentration to be tested for antibacterial activity (usually 320 μg/mL stock solutions). 2x serial dilutions in vehicle (at 10× the final test concentrations) of the test compounds were prepared from the test compound stock solutions in a non-binding 96 well plate.
(§9) In a sterile clear flat bottom 96 well plate, 15 μL of each test compound dilution was added to 135 μL of ˜5×10^5 cfu/mL bacterial culture. Each concentration was tested in duplicate. Each experiment contained positive control wells for bacterial growth (i.e., no test compound added to bacteria) and sterility controls wells (i.e., sterile MHB and no test compounds added). 96 well plates containing bacterial cultures and test compounds were incubated at 37° C. for 16-20 hours with shaking at 200 rpm.
(§10) After incubation, the MIC of each test compound was determined by measuring the OD600 of each well using a plate reader. Wells with OD600 >0.08 were considered to have bacterial growth and wells with OD600<0.08 were considered to have no bacterial growth. The lowest concentration of test agent able to inhibit bacterial growth (0D600<0.08 after 16-20 hours) was defined as the MIC.

[5] = test system: B. fragilis
[6] = in vitro; type: cell-based; conditions: human, HepG2 cells
Experimental: Compounds were tested for cytotoxicity to a mammalian cell line HepG2 (Human hepatocyte carcinoma from ECACC (85011430)). Hep G2 cells were seeded into 96-well plates, 7500 cells/well in 100 μl medium (Minimum Essential Medium (Gibco 21090) supplemented with 2 mM L-Glutamine, 1% non-essential amino acids and 10% fetal bovine serum) and incubated for 20 hours at 37° C., 5% CO2. 100 μL of fresh medium containing a test compound or DMSO (for control) at 2× final concentration were added and incubated for 48 hours at 37° C., 5% CO2. The final concentration of DMSO in plate was 1%. At the end of this incubation, 20 μl MTT (Thiazolyl Blue Tetrazolium Bromide) solution 5 mg/ml in H2O (0.5 mg/ml final in well) was added to all wells. Cells were incubated with MTT for 4 hours at 37° C., 5% CO2. After incubation, medium containing MTT was removed; 200 μl of DMSO was added in each well and plates were put on a shaker for 5 minutes. Absorbance was read on a SpectraMax plate reader at 570 nm. Specific absorbance (Specific A570) was calculated by subtracting the mean absorbance values of the blank wells (no HepG2 cells) from each well. Control values were determined from wells containing cells and treated with medium+1% DMSO only (no test compound). % viability was calculated as:
(Specific A570test compound/Specific A570control)×100.

[7] = test system: S. pneumoniae (8 isolates); type: cell-based, Streptococcus pneumonia; conditions: 20 h
Experimental: as §1, §2, §3, §4

[8] = test system: E.coli; type: cell-based, Escherichia coli; conditions: for MIC ratio Coli/Staph: ratio of E. coli MIC to S. aureus MIC
Experimental: as §5, §6, §7, §8, §9, §10

[9] = test system: E. faecium (3 isolates); type: cell-based, Enterococcus faecium; conditions: 20 h
Experimental: as §1, §2, §3, §4

[10] = test system: S. pyogenes (2 isolates); type: cell-based, Streptococcus pyogenes; conditions: 20 h
Experimental: as §1, §2, §3, §4

[11] = test system: E. faecalis (5 isolates); type: cell-based, Enterococcus faecalis; conditions: 20 h
Experimental: as §1, §2, §3, §4

Compound | MIC C. difficile ([1]; anaerobic broth microdilution, read after 44-48 hours, Example 17b) | S. Aureus (14) MIC90 [2] | S. epidermidis (MIC90) (5) [3] | MIC S. aureus [4] | MIC B. fragilis [5] | S. pneumoniae (8) MIC90 [7] | MIC E. coli [8] | MIC ratio Coli/Staph [8] | E. faecium (3) MIC90 [9] | S. pyogenes (2) MIC90 [10] | E. faecalis (5) MIC90 [11] | MIC C. difficile [1] | viability at 48 h, 100 µM [6]
CC[C@H](C)[C@H](NC(=O)[C@@H](Cc1ccccc1)NC)C(=O)N[C@@H](CO)C(=O)N[C@H](CCC(N)=O)C(=O)N[C@@H](C(=O)N[C@H](C(=O)N[C@@H](CO)C(=O)N[C@H]1C(=O)N[C@@H](C)C(=O)N[C@@H](CCCCNC(=N)N)C(=O)N[C@@H]([C@@H](C)CC)C(=O)O[C@H]1C)[C@@H](C)CC)[C@@H](C)CC [Compound 5, H-D-MePhe-Ile-Ser-D-Gln-D-aIle-Ile-Ser-c(D-Thr-Ala-Har-Ile)] | <0.03 to 0.06 µg/mL | 0.25 µg/mL | ≤0.12 µg/mL | 0.13 µg/mL (≈ 0.103 µM) | >32 µg/mL | ≤0.12 µg/mL | 10 µg/mL (≈ 7.95 µM) | 77 | 0.5 µg/mL | ≤0.12 µg/mL | 0.5 µg/mL |  | 117%
CC[C@@H](C)[C@@H](NC(=O)[C@@H](CCC(N)=O)NC(=O)[C@H](CO)NC(=O)[C@@H](NC(=O)[C@@H](Cc1ccccc1)NC)[C@@H](C)CC)C(=O)N[C@H](C(=O)N[C@@H](CO)C(=O)N[C@H]1C(=O)N[C@@H](C)C(=O)N[C@@H](CCCCN)C(=O)N[C@@H]([C@@H](C)CC)C(=O)O[C@H]1C)[C@@H](C)CC [Compound 12, H-D-MePhe-Ile-Ser-D-Gln-D-Ile-Ile-Ser-c(D-Thr-Ala-Lys-Ile)] |  |  |  | 0.25 µg/mL (≈ 0.206 µM) | >32 µg/mL |  | 32 µg/mL (≈ 26.3 µM) | 128 |  |  |  | 0.25 µg/mL (≈ 0.206 µM) | 
CC[C@H](C)[C@H](NC(=O)[C@@H](Cc1ccccc1)NC)C(=O)N[C@@H](CO)C(=O)N[C@H](CCC(N)=O)C(=O)N[C@@H](C(=O)N[C@H](C(=O)N[C@@H](CO)C(=O)N[C@H]1C(=O)N[C@@H](C)C(=O)N[C@@H](CCCNC(=N)NC)C(=O)N[C@@H]([C@@H](C)CC)C(=O)O[C@H]1C)[C@@H](C)CC)[C@@H](C)CC [Compound 11, H-D-MePhe-Ile-Ser-D-Gln-D-aIle-Ile-Ser-c(D-Thr-Ala-Arg(Me)-Ile)] |  |  |  | 0.25 µg/mL (≈ 0.199 µM) | >32 µg/mL |  | 16 µg/mL (≈ 12.7 µM) | 64 |  |  |  | 0.12 µg/mL (≈ 0.0953 µM) | 
CC[C@H](C)[C@H](NC(=O)[C@@H](Cc1ccccc1)NC)C(=O)N[C@@H](CO)C(=O)N[C@H](CCCCN)C(=O)N[C@@H](C(=O)N[C@H](C(=O)N[C@@H](CO)C(=O)N[C@H]1C(=O)N[C@@H](C)C(=O)N[C@@H](CCCCN)C(=O)N[C@@H]([C@@H](C)CC)C(=O)O[C@H]1C)[C@@H](C)CC)[C@@H](C)CC [Compound 14, H-D-MePhe-Ile-Ser-D-Lys-D-aIle-Ile-Ser-c(D-Thr-Ala-Lys-Ile)] (H-[dNMeF]IS[dK][d(aIle)]IS[dT]AKI; ester 8-C) |  |  |  | 0.25 µg/mL (≈ 0.206 µM) | >32 µg/mL |  | 4 µg/mL (≈ 3.29 µM) | 16 |  |  |  | 0.06 to 0.12 µg/mL | 

The next lines start with results.

MIC C. difficile ([1]; anaerobic broth microdilution, read after 44-48 hours, Example 17b) | S. Aureus (14) MIC90 [2] | S. epidermidis (MIC90) (5) [3] | MIC S. aureus [4] | MIC B. fragilis [5] | S. pneumoniae (8) MIC90 [7] | MIC E. coli [8] | MIC ratio Coli/Staph [8] | E. faecium (3) MIC90 [9] | S. pyogenes (2) MIC90 [10] | E. faecalis (5) MIC90 [11] | MIC C. difficile [1] | Compound | viability at 48 h, 100 µM [6]
 | 0.5 µg/mL | 0.5 µg/mL |  |  | ≤0.12 µg/mL |  |  | 1 µg/mL | 0.25 µg/mL | 2 µg/mL |  | CC[C@H](C)[C@H](NC(=O)[C@@H](Cc1ccccc1)NC)C(=O)N[C@@H](CO)C(=O)N[C@H](CCC(N)=O)C(=O)N[C@@H](C(=O)N[C@H](C(=O)N[C@@H](CO)C(=O)N[C@H]1C(=O)N[C@@H](C)C(=O)N[C@@H](CCCCN)C(=O)N[C@@H]([C@@H](C)CC)C(=O)O[C@H]1C)[C@@H](C)CC)[C@@H](C)CC [[Lys10]teixobactin, reference compound] | 95.6%
 | 0.5 µg/mL | 0.5 µg/mL |  |  | 0.25 µg/mL |  |  | 2 µg/mL | 0.25 µg/mL | 2 µg/mL |  | CC[C@H](C)[C@H](NC(=O)[C@@H](Cc1ccccc1)NC)C(=O)N[C@@H](CO)C(=O)N[C@H](CCC(N)=O)C(=O)N[C@@H](C(=O)N[C@H](C(=O)N[C@@H](CO)C(=O)N[C@H]1C(=O)N[C@@H](C)C(=O)N[C@@H](CCCNC(=N)N)C(=O)N[C@@H]([C@@H](C)CC)C(=O)O[C@H]1C)[C@@H](C)CC)[C@@H](C)CC [[Arg10]teixobactin, reference compound] | 115%
 |  |  | 0.25 µg/mL (≈ 0.206 µM) | >32 µg/mL |  | 16 µg/mL (≈ 13.2 µM) | 64 |  |  |  | 0.12 µg/mL (≈ 0.0986 µM) | CC[C@H](C)[C@H](NC(=O)[C@@H](Cc1ccccc1)NC)C(=O)N[C@@H](CO)C(=O)N[C@H](CCC(N)=O)C(=O)N[C@@H](C(=O)N[C@H](C(=O)N[C@@H](CO)C(=O)N[C@H]1C(=O)N[C@@H](C)C(=O)N[C@@H](CCCCN)C(=O)N[C@@H]([C@@H](C)CC)C(=O)O[C@H]1C)[C@@H](C)CC)[C@@H](C)CC [Lys10-teixobactin] | 
 | 0.5 µg/mL | 0.25 µg/mL |  |  | ≤0.12 µg/mL |  |  | 0.25 µg/mL | ≤0.12 µg/mL | 0.5 µg/mL |  | CC[C@H](C)[C@H](NC(=O)[C@@H](Cc1ccccc1)NC)C(=O)N[C@@H](Cc1cccc2ccccc12)C(=O)N[C@H](CCC(N)=O)C(=O)N[C@@H](C(=O)N[C@H](C(=O)N[C@@H](CO)C(=O)N[C@H]1C(=O)N[C@@H](C)C(=O)N[C@@H](CCCCNC(=N)N)C(=O)N[C@@H]([C@@H](C)CC)C(=O)O[C@H]1C)[C@@H](C)CC)[C@@H](C)CC [Compound 73, H-D-MePhe-Ile-lNal-D-Gln-D-aIle-Ile-Ser-c(D-Thr-Ala-Har-Ile)] | 113%
